Results from article PMC7997578, “Design, Synthesis, Dynamic Docking, Biochemical Characterization, and in Vivo Pharmacokinetics Studies of Novel Topoisomerase II Poisons with Promising Antiproliferative Activity” (Journal of Medicinal Chemistry, 2020).
≈ marks a conversion by molar mass, not a printed value.

Columns and labels:
[1] = plasma protein binding (rapid equilibrium dialysis), human; assay type: in vitro ADME; conditions: pH 7.4
Experimental: (§1) 3. Aqueous t herm odynam ic solu bili ty
(§2) The thermodynamic solubility of 3f was determined by addition of Phosphate Buffered Saline (PBS) at pH 7. 4 to an exces s of solid compound.
(§3) The assay was performed by incubation of an aliquot of 2. 5mg of test compound in 500µL of PBS at pH 7. 4. The suspension was shaken at 300 RPM for 24h at 25°C. At the end of the incubation period, the saturated solution was filtered and analyzed by UPLC/MS for the quantification of dissolved compound (in µM) by UV at a specific wavelength ( λmax of the test compound). The analyses were performed on a Waters ACQUITY UPLC/MS SQD system equipped with an ESI ion source. The analyses were run on an ACQUITY UPLC BEH C 18 column (50x2. 1mmI D, particle size 1. 7µm) with a VanGuard BEH C 18 pr e-column (5x2. 1mmID, particle size 1. 7µm), using H 2O + 0. 1% HCOOH (A) and CH 3CN + 0. 1% HCOOH (B) as mobile phase.
(§4) 4. Plasm a Protei n Bindi ng
(§5) The assay was conducted in triplicate in human and mouse plasma. An appropriate volume of plasma was spiked with a known amount of 10mM DMSO stock solution of the test compound, thus reaching the incubation concentrations of 0. 5, 1 and 5 µM. […] At this point, the supernatants were ready for injections in the UPLC -MS/ MS system. […] Plasma protein binding was calculated applying appropriate corrections to compensate for dilutions during sampling.

[2] = aqueous thermodynamic solubility; assay type: physicochemical; conditions: PBS pH 7.4, 24 h, 25°C
Experimental: as §1, §2, §3, §4, §5

Molecule `O=C(Nc1cccc(OC(F)(F)F)c1)c1c(O)n(-c2ccccc2)c(=S)n(-c2ccccc2)c1=O` [3f, 6-Hydroxy-4-oxo-1,3-diphenyl-2-thioxo-N-(3-(trifluoromethoxy)phenyl)-1,2,3,4-tetrahydropyrimidine-5-carboxamide] has a fraction unbound at 3 h [1] of less than 0.01 and a solubility thermodynamic at 24 h [2] of 30 µM (≈ 15 µg/mL).
